Experimental data from ChEMBL document CHEMBL4130410, “Novel rhynchophylline analogues as microvascular relaxation agents for the treatment of microvascular dysfunction caused by diabetes” (Eur J Med Chem, 2017).
The source made the active and inactive calls. No cut-off for these calls is given here.

Key:
Thoracic aorta [1] = test: Vasorelaxant activity in rat thoracic aorta; assay type: functional, tissue-based
Mesenteric artery [2] = test: Vasorelaxant activity in Sprague-Dawley rat endothelium denuded mesentric artery rings assessed as inhibition of phenylephrine-induced contraction; assay type: functional, tissue-based
Rattus norvegicus [3] = test: (§1) In vivo vasorelaxant activity in streptozotocin-induced type-1 diabetic Sprague-Dawley rat model assessed as protection against eNOS loss in vessels at 20 mg/kg, po via gavage for 1 week starting from 8 week post diabetic induction by hematoxylin and eosin staining based assay; assay type: functional, organism-based
Rattus norvegicus [4] = test: as §1, with “vessels by measuring increase in eNOS protein expression” for “vessels”, “Western blot method” for “hematoxylin and eosin staining based assay”; assay type: functional, organism-based
Rattus norvegicus [5] = test: In vivo vasorelaxant activity in streptozotocin-induced type-1 diabetic Sprague-Dawley rat model assessed as increase in acetylcholine-induced endothelium dependent relaxation in mesentric artery rings at 20 mg/kg, po via gavage for 1 week starting from 8 week post diabetic induction; assay type: functional, organism-based
Mesenteric artery [6] = test: Vasorelaxant activity in endothelium intact mesentric artery rings isolated from streptozotocin-induced type-1 diabetic Sprague-Dawley rat model assessed as inhibition of phenylephrine-induced contraction in presence of eNOS inhibitor L-NAME; assay type: functional, tissue-based
Mesenteric artery [7] = test: Vasorelaxant activity in Sprague-Dawley rat endothelium intact mesentric artery rings assessed as inhibition of KCl-induced contraction; assay type: functional, tissue-based
Mesenteric artery [8] = test: Vasorelaxant activity in Sprague-Dawley rat endothelium intact mesentric artery rings assessed as inhibition of phenylephrine-induced contraction; assay type: functional, tissue-based
Mesenteric artery [9] = test: Vasorelaxant activity in Sprague-Dawley rat endothelium intact mesentric artery rings assessed as inhibition of phenylephrine-induced contraction in presence of non-selective calcium-activated K+ channel blocker TEA/VGCC blocker nifedipine; assay type: functional, tissue-based
Thoracic aorta [10] = test: Potency index, ratio of rhynchophylline IC50 to compound IC50 for vasorelaxant activity in rat thoracic aorta; assay type: functional
Mesenteric artery [11] = test: Vasorelaxant activity in mesentric artery rings isolated from Sprague-Dawley rat assessed as inhibition of phenylephrine-induced contraction in presence of eNOS inhibitor L-NAME; assay type: functional, tissue-based
Mesenteric artery [12] = test: Vasorelaxant activity in Sprague-Dawley rat endothelium denuded mesentric artery rings assessed as inhibition of KCl-induced contraction; assay type: functional, tissue-based
Rattus norvegicus [13] = test: In vivo vasorelaxant activity in streptozotocin-induced type-1 diabetic Sprague-Dawley rat model assessed as inhibition of phenylephrine-induced contraction in mesentric artery rings at 20 mg/kg, po via gavage for 1 week starting from 8 week post diabetic induction; assay type: functional, organism-based
Mesenteric artery [14] = test: Vasorelaxant activity in endothelium intact mesentric artery rings isolated from streptozotocin-induced type-1 diabetic Sprague-Dawley rat model assessed as inhibition of phenylephrine-induced contraction; assay type: functional, tissue-based

Row | SMILES | IC50 (Thoracic aorta [1]) [µM] | Emax (Mesenteric artery [2]) [%] | IC50 (Mesenteric artery [2]) [µM] | Activity (Rattus norvegicus [3]) | Activity (Rattus norvegicus [4]) | Activity (Rattus norvegicus [5]) | inhibition (Mesenteric artery [6]) | inhibition (Mesenteric artery [7]) | Emax (Mesenteric artery [8]) [%] | IC50 (Mesenteric artery [8]) [µM] | inhibition (Mesenteric artery [8]) | inhibition (Mesenteric artery [9]) | Ratio IC50 (Thoracic aorta [10]) | inhibition (Mesenteric artery [11]) | inhibition (Mesenteric artery [12]) | inhibition (Rattus norvegicus [13]) | inhibition (Mesenteric artery [14])
1 | COC(=O)CC1CC2c3[nH]c4ccccc4c3CCN2CC1CCO (racemic) | 5.89 | 99.7 | 1.2 | Active | Active | Active | inactive | inactive | 99.9 | 0.499 | Dose-dependent effect | Active | <=30 | inactive | inactive | Active | Active
2 | COC(=O)C[C@H]1C[C@@H]2c3[nH]c4ccccc4c3CCN2C[C@H]1CCO | 0.199 | 101 | 5.15 |  |  |  | inactive | inactive | 100 | 0.092 | Dose-dependent effect | inactive | <=30 | inactive | inactive |  | Active
3 | CC[C@H]1CN2CC[C@]3(C(=O)Nc4ccccc43)[C@@H]2C[C@@H]1/C(=C/OC)C(=O)OC | 174 |  |  |  |  |  |  |  |  |  |  |  |  |  |  |  | 
4 | COC(=O)C[C@@H]1C[C@H]2c3[nH]c4ccccc4c3CCN2C[C@@H]1CCO | 3.69 | 86.3 | 49.9 |  |  |  | inactive | inactive | 99.1 | 7.79 | Dose-dependent effect | Active | <=30 | inactive | inactive |  | 
